Assay results taken from paper PMC13586308, “Cell type–selective targeting by heterobifunctional protein binders via in-cell enrichment” (Nature Communications, 2026).
Where two headings read alike, the source gives them in different places.

Legend:
[1] = target: T1, BRD4^BD1 (Homo sapiens, UniProt O60885); assay: competitive fluorescence polarization assay, BRD4 BD1 -/+ presenter protein; type: binding; conditions: for α BRD4^BD1 (binding cooperativity factor): ratio of binding in absence or presence of FKBP12
T1 construct: to the isolated BD1 and BD2 domains of BRD2, BRD3 and BRD4

[2] = target: T2, BRD4^BD2 (Homo sapiens, UniProt O60885); assay: competitive fluorescence polarization assay, BRD4 BD2 -/+ presenter protein; type: binding
T2 construct: to the isolated BD1 and BD2 domains of BRD2, BRD3 and BRD4

[3] = target: BRD4 43-463 Y390A (Homo sapiens, UniProt O60885, Y390A); assay: competitive FP assay, BRD4 tandem construct Y390A; type: binding
[4] = test system: BRD4 43-463 Y390A; assay: competitive FP assay, BRD4 tandem construct Y390A; type: binding
[5] = target: BRD4 43-463 Y97A (Homo sapiens, UniProt O60885, Y97A); assay: competitive FP assay, BRD4 tandem construct Y97A; type: binding
[6] = test system: BRD4 43-463 Y97A; assay: competitive FP assay, BRD4 tandem construct Y97A; type: binding
[7] = target: T3, BRD2BD1 (Homo sapiens, UniProt P25440); assay: competitive FP assay, BRD2 BD1 -/+ FKBP12; type: binding
T3 construct: to the isolated BD1 and BD2 domains of BRD2, BRD3 and BRD4
T3 sequence (P25440 74-180 limits assumed): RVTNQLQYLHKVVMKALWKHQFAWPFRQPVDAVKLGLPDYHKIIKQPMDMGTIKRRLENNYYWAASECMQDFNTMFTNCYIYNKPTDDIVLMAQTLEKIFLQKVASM

[8] = target: BRD2BD2 (Homo sapiens, UniProt P25440); assay: competitive FP assay, BRD2 BD2 -/+ FKBP12; type: binding
Chain of BRD2BD2 (P25440 344-453 limits assumed): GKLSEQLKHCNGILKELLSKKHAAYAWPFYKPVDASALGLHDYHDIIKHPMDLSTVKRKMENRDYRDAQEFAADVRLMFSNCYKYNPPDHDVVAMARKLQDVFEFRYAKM

[9] = target: T4, BRD3BD1 (Homo sapiens, UniProt Q15059); assay: competitive FP assay, BRD3 BD1 -/+ FKBP12; type: binding
T4 construct: to the isolated BD1 and BD2 domains of BRD2, BRD3 and BRD4
T4 sequence (Q15059 34-140 limits assumed): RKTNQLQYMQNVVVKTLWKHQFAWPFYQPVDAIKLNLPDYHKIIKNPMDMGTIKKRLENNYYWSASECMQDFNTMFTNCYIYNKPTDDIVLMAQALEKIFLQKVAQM

[10] = target: T5, BRD3BD2 (Homo sapiens, UniProt Q15059); assay: competitive FP assay, BRD3 BD2 -/+ FKBP12; type: binding
T5 construct: to the isolated BD1 and BD2 domains of BRD2, BRD3 and BRD4
T5 sequence (Q15059 306-415 limits assumed): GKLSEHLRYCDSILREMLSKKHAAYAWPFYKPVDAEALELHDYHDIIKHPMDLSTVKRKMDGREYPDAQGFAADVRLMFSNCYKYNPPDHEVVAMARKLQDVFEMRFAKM

[11] = target: T6, His-BRD4^BD1 + eGFP-FKBP12 (Homo sapiens, UniProt O60885+P62942); assay: HTRF ternary complex formation BRD4 BD1 + EGFP-FKBP12; type: binding; conditions: eGFP-FKBP12 5 µM, His-BRD4^BD1 100 nM; read-out: HTRF BRD4^BD1 + GFP-FKBP12 Kd
T6 construct: the His6-tag of the respective BD1 or BD2 domain of BRD4 and EGFP-labeled FKBP12

[12] = target: T7, His-BRD4^BD2 + eGFP-FKBP12 (Homo sapiens, UniProt O60885+P62942); assay: HTRF ternary complex formation BRD4 BD2 + EGFP-FKBP12; type: binding; conditions: eGFP-FKBP12 5 µM, His-BRD4^BD2 100 nM; read-out: HTRF BRD4^BD2 + GFP-FKBP12 Kd
T7 construct: the His6-tag of the respective BD1 or BD2 domain of BRD4 and EGFP-labeled FKBP12

[13] = target: FKBP12 (Homo sapiens, UniProt P62942); assay: NanoBRET FKBP12 in intact HEK293 cells; type: cell-based
[14] = target: T8, BRD4 (Homo sapiens, UniProt O60885); assay: NanoBRET BRD4, transient BRD4-NanoLuc in HEK293T cells; type: cell-based; conditions: intact HEK293 cells
T8 construct: full-length BRD4 fused to NanoLuc at N terminus; expressed in transfected cells; host or cells: HEK293T
Method in brief: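 BRD4 engagement measured in HEK293T cells transiently expressing N-terminal NanoLuc-BRD4 (20 h), with BRD Tracer-02 at its KD concentration. Cells equilibrated with serially diluted inhibitors for 2 h at 37 °C. Donor 450 nm/acceptor 610 nm BRET read; IC50 from normalized 3-parameter fit.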

[15] = test system: MV4-11 cells; assay: CellTiter-Glo cell viability, MV4-11; type: cell-based, human; conditions: five days, without FKBP12 PROTAC; for IC50: Homo sapiens, MV4-11, 120 h, read-out: Cell toxicity (MV4-11) - FKBP12 PROTAC IC50
[16] = test system: INA-6 cells; assay: cell viability, INA-6 FKBP12 knockout or NTC; type: cell-based, human; conditions: for IC50: Homo sapiens, INA-6
[17] = test system: MYC mRNA; assay: quantitative RT-PCR of MYC mRNA, MV4-11; type: cell-based, human; conditions: Homo sapiens, 6 h; MV4-11, six hours, without FKBP12 PROTAC; read-out: MYC mRNA levels IC50
[18] = 15 µM FKBP51FK1, read-out: Binding to BRD4BD1 + FKBP51FK1 Kd
[19] = absence of FKBP12, 2 nM JQ1-FL tracer, read-out: Binding to BRD4^BD1 - FKBP12 Kd
[20] = absence of FKBP51FK1 (SI Table 3), read-out: Binding to BRD4BD1 - FKBP51FK1 Kd
[21] = presence of 15 µM FKBP12, read-out: Binding to BRD4^BD1 + FKBP12 Kd (converted)
[22] = values quoted in rebuttal letter (earlier version of Tab. 1), read-out: binding to BRD4BD1 + FKBP12
[23] = 15 µM FKBP51FK1, read-out: Binding to BRD4BD2 + FKBP51FK1 Kd
[24] = absence of FKBP12, 2 nM JQ1-FL tracer, read-out: Binding to BRD4^BD2 - FKBP12 Kd
[25] = absence of FKBP51FK1 (SI Table 3), read-out: Binding to BRD4BD2 - FKBP51FK1 Kd
[26] = presence of 15 µM FKBP12, read-out: Binding to BRD4^BD2 + FKBP12 Kd (converted)
[27] = Binding to BRD4 43-463 Y390A + FKBP12 Kd, 15 µM FKBP12
[28] = Binding to BRD4 43-463 Y97A + FKBP12 Kd, 15 µM FKBP12
[29] = Binding to BRD4 43-463 Y97A - FKBP12 Kd, absence of FKBP12
[30] = 15 µM FKBP12, read-out: Binding to BRD2BD1 + FKBP12 Kd
[31] = absence of FKBP12, read-out: Binding to BRD2BD1 - FKBP12 Kd
[32] = 15 µM FKBP12, read-out: Binding to BRD2BD2 + FKBP12 Kd
[33] = absence of FKBP12, read-out: Binding to BRD2BD2 - FKBP12 Kd
[34] = 15 µM FKBP12, read-out: Binding to BRD3BD1 + FKBP12 Kd
[35] = absence of FKBP12, read-out: Binding to BRD3BD1 - FKBP12 Kd
[36] = 15 µM FKBP12, read-out: Binding to BRD3BD2 + FKBP12 Kd
[37] = absence of FKBP12, read-out: Binding to BRD3BD2 - FKBP12 Kd
[38] = FKBP12 knockout cells, read-out: Cell toxicity INA-6 FKBP12 KO IC50
[39] = nontargeted control (NTC) cells, read-out: Cell toxicity INA-6 NTC IC50

Molecule `Cc1sc2c(c1C)C(c1ccc(Cl)cc1)=NC(CC(=O)NCCOCCn1cc(COCC3CN(C(C)c4ccccn4)C(=O)C4CCCC3N4S(=O)(=O)c3cc(Cl)cc(Cl)c3)nn1)c1nnc(C)n1-2` (stereo not shown) [a1dj] has a Kd [1, 18] of 680 ± 100 nM, a Kd [1, 19] of 470 ± 60 nM and a Kd [1, 20] of 250 ± 80 nM. The Kd [1, 21] was 39 nM, the “α BRD4^BD1 (binding cooperativity factor)” value [1] was 12 and the Kd [1, 22] was 32 nM. For the same molecule, the Kd [2, 23] was 1000 ± 500 nM, the Kd [2, 24] was 400 ± 90 nM and the Kd [2, 25] was 150 ± 50 nM. For the same molecule, the Kd [2, 26] was 90 nM, the “α BRD4^BD2 (binding cooperativity factor)” value ([2]; ratio of binding in absence or presence of FKBP12) was 4.4 and the Kd [3, 27] was 9 ± 1 nM. The Kd ([3]; absence of FKBP12) was 106 ± 7 nM, the “α BRD4 43-463 Y390A” value [4] was 12 and the Kd [5, 28] was 84 ± 10 nM. For the same molecule, the Kd [5, 29] was 100 ± 17 nM, the “α BRD4 43-463 Y97A” value [6] was 1.2 and the “α BRD2BD1” value [7] was 16. The Kd [7, 30] was 38 ± 6 nM, the Kd [7, 31] was 610 ± 90 nM and the “α BRD2BD2” value [8] was 2.9. For the same molecule, the Kd [8, 32] was 48 ± 17 nM, the Kd [8, 33] was 140 ± 65 nM and the Kd [9, 34] was 25 ± 3 nM. The Kd [9, 35] was 290 ± 35 nM, the “α BRD3BD2” value [10] was 1.1 and the Kd [10, 36] was 150 ± 30 nM. For the same molecule, the Kd [10, 37] was 170 ± 50 nM, the Kd [11] was 15 ± 3 nM and the Kd [12] was 30 ± 7 nM. It also gave an IC50 [13] of 2.6 nM, an IC50 [14] of 653 nM and an IC50 [15] of 0.09 nM. The “Cell toxicity (MV4-11) - FKBP12 PROTAC IC50” value [15] was “sub-nanomolar”, the “Cell toxicity INA-6 FKBP12 KO IC50” value ([16]; FKBP12 knockout cells) was “hardly observable” and the IC50 [16, 38] was 480 nM. The IC50 [16, 39] was 0.4 nM, the “Cell toxicity INA-6 NTC IC50” value ([16]; nontargeted control (NTC) cells) was “sub-nanomolar” and the IC50 [17] was 5 nM.
Molecule `Cc1sc2c(c1C)C(c1ccc(Cl)cc1)=NC(CC(=O)N1CCC3(CC1)CC(n1cc(C4CN(Cc5ccccn5)C(=O)C5CCCC4N5S(=O)(=O)c4cc(Cl)cc(Cl)c4)nn1)C3)c1nnc(C)n1-2` (stereo not shown) [a13c] has a Kd [1, 18] of 870 ± 100 nM, a Kd [1, 19] of 4600 ± 800 nM and a Kd [1, 20] of 1500 ± 450 nM. For the same molecule, the Kd [1, 21] was 35 nM, the “α BRD4^BD1 (binding cooperativity factor)” value [1] was 131 and the Kd [1, 22] was 20 nM. For the same molecule, the Kd [2, 23] was 190 ± 30 nM, the Kd [2, 24] was 2300 ± 400 nM and the Kd [2, 25] was 1600 ± 400 nM. For the same molecule, the Kd [2, 26] was 1900 nM, the Kd [3, 27] was 15 ± 2 nM and the Kd ([3]; absence of FKBP12) was 860 ± 140 nM. For the same molecule, the “α BRD4 43-463 Y390A” value [4] was 57, the Kd [5, 28] was 670 ± 90 nM and the Kd [5, 29] was 800 ± 110 nM. The “α BRD4 43-463 Y97A” value [6] was 1.2, the “α BRD2BD1” value [7] was 34 and the Kd [7, 30] was 100 ± 14 nM. For the same molecule, the Kd [7, 31] was 3400 ± 1600 nM, the “α BRD2BD2” value [8] was 1.6 and the Kd [8, 32] was 600 ± 100 nM. For the same molecule, the Kd [8, 33] was 960 ± 350 nM, the “α BRD3BD1” value [9] was 46 and the Kd [9, 34] was 56 ± 5 nM. For the same molecule, the Kd [9, 35] was 2600 ± 1000 nM, the “α BRD3BD2” value [10] was 0.3 and the Kd [10, 36] was 3000 ± 350 nM. It also gave a Kd [10, 37] of 950 ± 100 nM, a Kd [11] of 13 ± 2 nM and a Kd [12] of 300 ± 30 nM. It also gave an IC50 [13] of 76 nM, an IC50 [14] of 9060 nM and an IC50 [15] of 7.7 nM. For the same molecule, the “Cell toxicity INA-6 FKBP12 KO IC50” value ([16]; FKBP12 knockout cells) was “hardly observable”, the IC50 [16, 38] was over 1600 nM and the IC50 [16, 39] was 13 nM. For the same molecule, the IC50 [17] was 2.8 nM.
